In general, IC50 refers to the midpoint of a concentration-inhibition curve.

Assay [1] concerns TNFα production in human whole blood. In words: Human whole blood assay, inhibition of LPS-stimulated TNFα production. In kind it is cell-based. Particulars: LPS 10 μg/ml, 6 hours, TNFα by ELISA. On the procedure:
[formula] (ii) Human Whole Blood
The ability of a test compound to inhibit TNFα production was also assessed in a human whole blood assay. Human whole blood secretes TNFα when stimulated with LPS.
Heparinised (10 units/ml) human blood was obtained from volunteers. 160 μl whole blood was added to 96 well round-bottom plates (Corning 3799). Compounds were solubilised in DMSO at a concentration of 10 mM, diluted 1:100 in “culture medium” [RPMI 1640 medium (Sigma) containing 50 units/ml penicillin, 50 μg/ml streptomycin and 2 mM glutamine] and subsequently serial dilutions were made in culture medium containing 1% DMSO. 20 μl of each test concentration was added to appropriate wells (triplicate cultures)(final concentration dose range of 10 μM-0.0001 μM). 20 μl of RPMI culture medium containing 1% DMSO was added to control wells.
Plates were incubated for 30 minutes at 37° C. (humidified incubator), prior to addition of 20 μl LPS (final concentration 10 μg/ml). Culture medium was added to control wells. Six “LPS alone” and six “medium alone” controls were included on each plate. A known TNFα synthesis/secretion inhibitor was included in each test. Plates were incubated for 6 hours at 37° C. (humidified incubator). Plates were centrifuged (2000 rpm for 10 minutes) and 80 μl plasma removed and stored at −80° C. (Corning 3799 plates). TNFα levels were measured by ELISA using paired antibodies from R&D Systems (catalogue nos. MAB610 and BAF210).
For orientation: In an ELISA, binding on a coated surface is turned into a signal by an enzyme label.

In assay [2] the target is T1, Human recombinant p38α (Homo sapiens, UniProt Q16539).
T1 construct: c-myc (N); 6His (N); made in house; host or cells: E. coli (PET vectors)
The assay is described as follows: In vitro enzyme assay, p38α kinase inhibition. The format is biochemical. Particulars: activated p38α, Myelin Basic Protein substrate, 33P ATP. On the procedure: The ability test compounds to inhibit the enzyme p38 kinase was assessed. Activity of the test compound against each of the p38α and […] isoforms of the enzyme was determined.
Human recombinant MKK6 (GenBank Accession Number G1209672) was isolated from Image clone 45578 (Genomics, 1996, 33, 151) and utilised to produce protein in the form of a GST fusion protein in a pGEX vector using analogous procedures to those disclosed by J. Han et al., Journal of Biological Chemistry, 1996, 271, 2886-2891. p38α (GenBank Accession Number G529039) and p38β (GenBank Accession Number G1469305) were isolated by PCR amplification of human lymphoblastoid cDNA (GenBank Accession Number GM1416) and human foetal brain cDNA [synthesised from mRNA (Clontech, catalogue no. 6525-1) using a Gibco superscript cDNA synthesis kit] respectively using oligonucleotides designed for the 5′ and 3′ ends of the human p38α and p38β genes using analogous procedures to those described by J. Han et al., Biochimica et Biophysica Acta, 1995, 1265, 224-227 and Y. Jiang et al., Journal of Biological Chemistry, 1996, 271, 17920-17926.
Both p38 protein isoforms were expressed in E. coli in PET vectors. Human recombinant p38α and p38β isoforms were produced as 5′ c-myc, 6His tagged proteins. Both MKK6 and the p38 proteins were purified using standard protocols: the GST MKK6 was purified using a glutathione sepharose column and the p38 proteins were purified using nickel chelate columns.
The p38 enzymes were activated prior to use by incubation with MKK6 for 3 hours at 30° C. The unactivated E. coli-expressed MKK6 retained sufficient activity to fully activate both isoforms of p38. For p38α, the activation incubate comprised p38α (50 μl of 10 mg/ml), MKK6 (5 μl of 12 mg/ml), ‘Kinase buffer’ [550 μl; pH 7.4 buffer comprising Tris HCl (50 mM), EGTA (0.1 mM), sodium orthovanadate (0.1 mM) and (1-mercaptoethanol (0.1%)], Mg [75 μl of 100 mM Mg(OCOCH3)2] and ATP (75 μl of 1 mM). The activation incubate for p38β was similar to the above except containing […] enzyme (82 μl at 3.05 mg/ml) and 518 μl “Kinase buffer”. p38α and p38β activation incubates were either used fresh or aliquoted and stored at −80° C.
The test compound was solubilised in DMSO (10 mM) and 1:3 serial dilutions in DMSO carried out in polypropylene plates (Costar 3365). Compound dilutions were then diluted 1:10 in “Kinase buffer” and 10 μl transferred to a microtiter assay plate (Costar 3596). Control wells contained 10 μl (1:10 dilution in kinase buffer) DMSO. ‘Kinase Assay Mix’ [[…]; comprising Myelin Basic Protein (Sigma M-1891; 0.5 ml of a 6.66 mg/ml solution in “Kinase buffer”), activated p38α enzyme (3.8 μl) and ‘Kinase Buffer’ (2.55 ml)] was then added. Control wells on each plate either contained the above “Kinase Assay Mix” (n=6 replicates) or contained “Kinase Assay Mix” in which the activated p38 enzyme was replaced by Kinase buffer (n=6 replicates). ‘Labelled ATP’ was then added to all wells […]; comprising 50 μM ATP, 5 μCi ^33P ATP (Amersham International cat. no. AH9968) and 50 mM Mg(OCOCH3)2]. For p38β, 23 μl activated p38β enzyme and “Kinase buffer” (2.53 ml) were included in the “Kinase Assay Mix”. The final concentration of test compound was 2.4 μM-0.001 μM (n=2 replicates). Microtiter plates were incubated at ambient temperature (with gentle agitation) for 60 minutes and the reaction stopped by addition of 20% trichloroacetic acid (TCA) (50 μl). The precipitate protein was captured onto filter plates (PerkinElmer 6005174) using a Packard Filtermate harvester (2% TCA wash) which was then dried overnight and 25 μl MICROSCINT O (Packard O6013611) added to each well. Plates were counted on a Top Count scintillation counter. Dose response curves were generated using an in house automated data analysis package and an Origin curve fitting package.

T1 sequence (Q16539 whole entry): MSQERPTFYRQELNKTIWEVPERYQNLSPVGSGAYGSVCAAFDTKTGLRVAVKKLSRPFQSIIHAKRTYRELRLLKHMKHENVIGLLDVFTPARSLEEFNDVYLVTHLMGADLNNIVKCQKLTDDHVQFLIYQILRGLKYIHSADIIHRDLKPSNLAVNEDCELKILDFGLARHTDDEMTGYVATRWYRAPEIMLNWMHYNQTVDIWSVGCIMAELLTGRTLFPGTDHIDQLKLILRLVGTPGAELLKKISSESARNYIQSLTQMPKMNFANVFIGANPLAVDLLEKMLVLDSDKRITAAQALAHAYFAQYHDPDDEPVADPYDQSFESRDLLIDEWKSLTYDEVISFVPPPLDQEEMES

`Cc1ccc(C(=O)NC2CC2)cc1NC(=O)c1ccc(OCc2cscn2)c(F)c1` [5[ac], N-{5-[(cyclopropylamino)carbonyl]-2-methylphenyl}-3-fluoro-4-(1,3-thiazol-4-ylmethoxy)benzamide]: the IC50 came to 70 nM in assay [1] and 7 nM in assay [2].

With `Cc1ccc(C(=O)NC2CC2)cc1NC(=O)c1ccc(OCc2cn3ccccc3n2)cc1` [5[e], N-cyclopropyl-3-{[4-(imidazo[1,2-a]pyridin-2-ylmethoxy)benzoyl]amino}-4-methylbenzamide], the values for the IC50 in assay [1] and in assay [2] were 520 nM and 10 nM, respectively.

As for `Cc1ccc(C(=O)NC2CC2)cc1NC(=O)c1ccc(OCc2ccccn2)c(F)c1` [5[y], N-{5-[(cyclopropylamino)carbonyl]-2-methylphenyl}-3-fluoro-4-(pyridin-2-ylmethoxy)benzamide], the half-maximal inhibitory concentration (IC50) in assay [1] was 140 nM; in assay [2] it was 6 nM.

`Cc1nc(COc2ccc(C(=O)Nc3cc(C(=O)NC4CC4)ccc3C)cc2F)cs1` [5[z], N-{5-[(cyclopropylamino)carbonyl]-2-methylphenyl}-3-fluoro-4-[(2-methyl-1,3-thiazol-4-yl)methoxy]benzamide]: the IC50 in assay [1] worked out at 300 nM; in assay [2], 7 nM.

On to `Cc1ccc(C(=O)NC2CC2)cc1NC(=O)c1cnc(OCc2nccs2)nc1` [23[a], N-{5-[(cyclopropylamino)carbonyl]-2-methylphenyl}-2-(1,3-thiazol-2-ylmethoxy)pyrimidine-5-carboxamide], for which the values for the concentration for half-maximal inhibition (IC50) in assay [1] and in assay [2] were 1700 nM and 170 nM, respectively.

Take `COc1ccc(C(=O)Nc2cc(C(=O)NC3CCC3)ccc2C)cc1OC` [Comparator Compound X, N-cyclobutyl-3-(3,4-dimethoxybenzamido)-4-methylbenzamide, reference compound]: the values for the IC50 in assay [1] and in assay [2] were > 10000 nM and 4400 nM, respectively.

As for `Cc1ccc(C(=O)NC2CC2)cc1NC(=O)c1ccc(OCc2ncccc2C)cc1` [Example 8, N-cyclopropyl-4-methyl-3-({4-[(3-methylpyridin-2-yl)methoxy]benzoyl}amino)benzamide], the half-inhibitory concentration (IC50) is 1800 nM in assay [1] and 59 nM in assay [2].

(Values after patent publication US8742124B2, “Amide derivatives bearing a cyclopropylaminoacarbonyl substituent useful as cytokine inhibitors” (AstraZeneca AB, priority 2003, dated 2014).)
